# Like-named read-outs stand apart in the source and are kept apart here.
# Experiments:
# P‐glycoprotein (P‐gp) [1] = conditions: in vitro; ref data on file, Incyte Corporation; cited from earlier work
# [2] = cited from earlier work
# [3] = phase 1/2 study; cited from earlier work
# human OATP1B and OATP1B3 = conditions: in vitro; ref data on file, Incyte Corporation; cited from earlier work
# P‐glycoprotein (P‐gp) [4] = conditions: read-out: P‐gp inhibition IC50; in vitro; ref data on file, Incyte Corporation; cited from earlier work
# [5] = not given; remark: listed apart in the source
# [6] = dose range from 5 to 45 mg, relapsed or refractory B‐cell malignancies; cited from earlier work
# CYP3A4 [7] = conditions: recombinant human CYP isozymes, earlier in vitro studies; cited from earlier work
# other PI3K isoforms = conditions: cited from earlier work
# [8] = Safety and tolerability in healthy participants; type: in vivo, human; conditions: for participants who experienced TEAEs: n = 18; for TEAEs considered related to the drug: investigator assessment
# major CYPs = conditions: earlier in vitro studies; cited from earlier work
# [9] = clinical use; cited from earlier work
# CYP3A4 [10] = conditions: human liver microsomes; ref data on file, Incyte Corporation; cited from earlier work
# [11] = concomitant rifampin 600 mg versus parsaclisib 20 mg alone
# [12] = parsaclisib 20 mg single oral dose alone, fasted, healthy participants, n = 18
# [13] = concomitant itraconazole 200 mg versus parsaclisib 10 mg alone
# [14] = parsaclisib 10 mg single oral dose alone, fasted, healthy participants, n = 18
compound,measurement,setting,value
CCOc1c([C@H](C)n2nc(C)c3c(N)ncnc32)cc(Cl)c(F)c1[C@@H]1CNC(=O)C1 [Parsaclisib],P‐gp substrate: concentration at which efflux transport is saturated,P‐glycoprotein (P‐gp) [1],> 100 µM
same,major metabolites in clinical plasma samples,"[2]; clinical plasma samples, ref data on file, Incyte Corporation",no major metabolites were detected
same,human‐specific metabolite,"[2]; in vitro, rat, dog, and human",no human‐specific metabolite identified
same,dose‐limiting toxicities,[3],no dose‐limiting toxicities identified
same,substrate of human OATP1B and OATP1B3,human OATP1B and OATP1B3,not likely a substrate
same,decrease of AUC0‐∞,[11],77%
same,increase in geometric mean CL/F,[11],approximately 4.4 fold
same,reduction of Cmax,[11],43%
same,"shortening of mean t½,β",[11],71%
same,"CL/F, Geometric Mean",[12],2.9 L/h
same,"CL/F, Mean ± SD",[12],3.0 ± 0.5 L/h
same,decrease in the exposure of parsaclisib,"single 20‐mg dose, concomitant rifampin",approximately 4 fold
same,IC50,P‐glycoprotein (P‐gp) [4],18.1 µM
same,decrease in geometric mean CL/F,[5]; [13],approximately 51%
same,increase in geometric mean AUC0‐∞,[5]; [13],107%
same,increase in geometric mean Cmax,[5]; [13],21%
same,"prolongation of mean t½,β",[5]; [13],59%
same,reduction of mean Vz/F,[5]; [13],approximately 24%
same,"CL/F, Geometric Mean",[5]; [14],2.9 L/h
same,"CL/F, Mean ± SD",[5]; [14],2.9 ± 0.3 L/h
same,increase in the exposure of parsaclisib,"[5]; single 10‐mg dose, concomitant itraconazole",approximately 2 fold
same,dose‐exposure relationship at steady state,[6],linear
same,CYP isozyme responsible for metabolism,CYP3A4 [7],primarily metabolized by CYP3A4
same,selectivity relative to other PI3K isoforms,other PI3K isoforms,approximately 20 000 fold
same,"dose interruptions or reductions, discontinuations, serious AEs, deaths due to TEAEs",[8]; both cohorts,"No dose interruptions or reductions, participant discontinuations, serious AEs, or deaths due to TEAEs"
same,participants who experienced TEAEs,[8]; cohort 1: parsaclisib 10 mg + itraconazole 200 mg,27.8%
same,participants with grade 4 TEAE (increased creatine phosphokinase),"[8]; cohort 2, day 44, not considered related to parsaclisib or rifampin",5.6%
same,participants who experienced TEAEs,[8]; cohort 2: parsaclisib 20 mg + rifampin 600 mg,44.4%
same,TEAEs considered related to the drug,[8]; healthy participants,No TEAE was considered related
same,participants reporting headache (most common TEAE),"[8]; of all 36 participants, all cases in cohort 2 (parsaclisib + rifampin)",13.9%
same,overall safety and tolerability,"[8]; single‐dose parsaclisib alone or combined with itraconazole or rifampin, healthy participants",safe and well tolerated
same,inhibition of major CYPs,major CYPs,not an inhibitor of major CYPs tested
C[C@H](Nc1ncnc2[nH]cnc12)c1cc2cccc(Cl)c2c(=O)n1-c1ccccc1 [duvelisib],associated toxicities,[9],"transaminitis (increased alanine and aspartate transaminase levels), colitis, diarrhea, and pneumonitis"
CC[C@H](Nc1ncnc2[nH]cnc12)c1nc2cccc(F)c2c(=O)n1-c1ccccc1 [idelalisib],associated toxicities,[9],"transaminitis (increased alanine and aspartate transaminase levels), colitis, diarrhea, and pneumonitis"
"CCC(C)n1ncn(-c2ccc(N3CCN(c4ccc(OCC5COC(Cn6cncn6)(c6ccc(Cl)cc6Cl)O5)cc4)CC3)cc2)c1=O (stereo not shown) [itraconazole, Itraconazole, reference compound]",TEAEs considered related to the drug,[8]; healthy participants,No TEAE was considered related
CC(=O)N1CCN(c2ccc(OCC3COC(Cn4ccnc4)(c4ccc(Cl)cc4Cl)O3)cc2)CC1 (stereo not shown) [ketoconazole],effect on parsaclisib metabolism,CYP3A4 [10],inhibited parsaclisib metabolism
"CO[C@H]1/C=C/O[C@@]2(C)Oc3c(C)c(O)c4c(O)c(c(/C=N/N5CCN(C)CC5)c(O)c4c3C2=O)NC(=O)/C(C)=C\C=C\[C@H](C)[C@H](O)[C@@H](C)[C@@H](O)[C@@H](C)[C@H](OC(C)=O)[C@@H]1C [rifampin, reference compound]",participants reporting generalized pruritus and maculopapular rash,"[8]; of all 36 participants, all in cohort 2, considered related to rifampin",5.6%

# Reference: publication PMC7586811 (Journal of Clinical Pharmacology, 2020)
